From PMC7490411 (Signal Transduction and Targeted Therapy, 2020)
pIC50: −log10 of the molar value.

Assays:
[1] = system: TRKA; test: KINOMEscan; type: binding; conditions: 1000 nM
[2] = system: RSK1(Kin.Dom.1-N-terminal); test: KINOMEscan; type: binding; conditions: 1000 nM
[3] = system: MAP4K4; test: KINOMEscan; type: binding; conditions: 1000 nM
[4] = system: RAF1; test: KINOMEscan; type: binding; conditions: 1000 nM
[5] = system: RET(V804L); test: KINOMEscan; type: binding; conditions: 1000 nM
[6] = molecular target: T1, BTK (Homo sapiens, UniProt Q06187); test: ADP-Glo biochemical kinase assay; conditions: purified BTK protein, read-out: IC50 against BTK
T1 construct: purchased Invitrogen (Carlsbad, CA, USA)
T1 sequence (Q06187 whole entry): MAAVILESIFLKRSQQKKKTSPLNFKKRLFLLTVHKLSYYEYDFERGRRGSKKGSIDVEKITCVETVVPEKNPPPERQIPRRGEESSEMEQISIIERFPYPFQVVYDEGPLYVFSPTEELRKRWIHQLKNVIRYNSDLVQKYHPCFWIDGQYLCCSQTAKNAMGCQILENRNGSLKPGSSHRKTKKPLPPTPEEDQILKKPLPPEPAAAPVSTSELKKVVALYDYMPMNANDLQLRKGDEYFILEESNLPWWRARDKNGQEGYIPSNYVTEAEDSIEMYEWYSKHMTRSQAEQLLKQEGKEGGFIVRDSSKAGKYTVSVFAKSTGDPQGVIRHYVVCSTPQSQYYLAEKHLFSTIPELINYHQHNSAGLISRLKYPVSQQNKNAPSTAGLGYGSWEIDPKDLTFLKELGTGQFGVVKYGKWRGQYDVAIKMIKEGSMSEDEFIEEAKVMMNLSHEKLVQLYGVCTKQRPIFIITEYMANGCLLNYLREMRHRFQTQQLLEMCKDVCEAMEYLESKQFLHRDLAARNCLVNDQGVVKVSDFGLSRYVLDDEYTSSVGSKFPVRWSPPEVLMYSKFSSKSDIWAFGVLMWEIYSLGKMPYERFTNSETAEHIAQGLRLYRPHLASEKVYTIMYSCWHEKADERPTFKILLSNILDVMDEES
Procedure: ADP-Glo^TM assay kits from Promega Corporation were used according to instructions. CHMFL-BTK-85 was generally prepared with 1:3 serial dilutions for 4 concentrations (300 nM, 100 nM, 30 nM, and 10 nM). 8 concentrations were used (1 μM to 1 nM) for ATP competition experiments. 2.5 µL BTK (10 ng/µL) was incubated with CHMFL-BTK-85 and CHMFL-BTK-85R for 60 min at room temperature in reaction buffer followed by addition of 2.5 µL ATP/substrate mixture. The assay was conducted for 1 h at 37 °C. After the plate cooled for 5 min at room temperature, 5 μL of ADP-Glo reagent was added into each well to stop the reaction and consume the remaining […] within 40 min. At the end, 10 µL kinase detection reagent was added and incubated for 30 min at room temperature. The luminescence signal was read with an envision Perkin Elmer plate reader (Envision, PE, USA).
The biochemical tests of BMX, BLK, JAK3, TXK, HER2, HER4, ITK, EGFR, and BTK were provided by Invitrogen (Carlsbad, CA, USA).

[7] = system: WNK3; test: KINOMEscan; type: binding; conditions: 1000 nM
[8] = system: SgK110; test: KINOMEscan; type: binding; conditions: 1000 nM
[9] = system: TGFBR1; test: KINOMEscan; type: binding; conditions: 1000 nM
[10] = system: SGK3; test: KINOMEscan; type: binding; conditions: 1000 nM
[11] = system: KIT(V559D); test: KINOMEscan; type: binding; conditions: 1000 nM
[12] = system: OSR1; test: KINOMEscan; type: binding; conditions: 1000 nM
[13] = system: ABL1(H396P)-nonphosphorylated; test: KINOMEscan; type: binding; conditions: 1000 nM
[14] = molecular target: T2, ITK (Homo sapiens, UniProt Q08881); test: KINOMEscan; type: binding; conditions: 1000 nM, read-out: Percent Control
T2 construct: purchased Invitrogen (Carlsbad, CA, USA)
T2 sequence (Q08881 1-620): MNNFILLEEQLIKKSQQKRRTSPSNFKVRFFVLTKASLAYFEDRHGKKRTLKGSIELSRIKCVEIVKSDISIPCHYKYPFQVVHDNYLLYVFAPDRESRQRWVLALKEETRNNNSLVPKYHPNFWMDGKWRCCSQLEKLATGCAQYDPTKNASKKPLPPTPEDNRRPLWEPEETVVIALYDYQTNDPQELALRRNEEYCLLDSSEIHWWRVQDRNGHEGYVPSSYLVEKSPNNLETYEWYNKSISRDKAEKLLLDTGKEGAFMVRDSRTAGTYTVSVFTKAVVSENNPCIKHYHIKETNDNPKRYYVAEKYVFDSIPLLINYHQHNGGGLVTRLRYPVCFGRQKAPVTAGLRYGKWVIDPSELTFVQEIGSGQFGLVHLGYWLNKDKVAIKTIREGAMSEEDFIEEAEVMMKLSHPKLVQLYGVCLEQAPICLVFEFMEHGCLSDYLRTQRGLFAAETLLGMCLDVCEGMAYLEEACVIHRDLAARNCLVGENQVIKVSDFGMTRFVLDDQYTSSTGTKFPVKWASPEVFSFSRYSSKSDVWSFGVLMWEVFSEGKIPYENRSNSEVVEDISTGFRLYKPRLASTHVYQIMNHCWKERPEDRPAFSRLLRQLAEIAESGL

[15] = system: CDK2; test: KINOMEscan; type: binding; conditions: 1000 nM
[16] = system: DCAMKL2; test: KINOMEscan; type: binding; conditions: 1000 nM
[17] = system: MELK; test: KINOMEscan; type: binding; conditions: 1000 nM
[18] = system: IGF1R; test: KINOMEscan; type: binding; conditions: 1000 nM
[19] = system: HIPK2; test: KINOMEscan; type: binding; conditions: 1000 nM
[20] = system: BMPR1B; test: KINOMEscan; type: binding; conditions: 1000 nM
[21] = system: AKT1; test: KINOMEscan; type: binding; conditions: 1000 nM
[22] = system: PIKFYVE; test: KINOMEscan; type: binding; conditions: 1000 nM
[23] = system: PLK2; test: KINOMEscan; type: binding; conditions: 1000 nM
[24] = system: DRAK2; test: KINOMEscan; type: binding; conditions: 1000 nM
[25] = system: INSRR; test: KINOMEscan; type: binding; conditions: 1000 nM
[26] = system: MLCK; test: KINOMEscan; type: binding; conditions: 1000 nM
[27] = system: EPHA3; test: KINOMEscan; type: binding; conditions: 1000 nM
[28] = system: MARK4; test: KINOMEscan; type: binding; conditions: 1000 nM
[29] = system: LIMK1; test: KINOMEscan; type: binding; conditions: 1000 nM
[30] = system: FGFR1; test: KINOMEscan; type: binding; conditions: 1000 nM
[31] = system: ROCK1; test: KINOMEscan; type: binding; conditions: 1000 nM
[32] = system: PRKD2; test: KINOMEscan; type: binding; conditions: 1000 nM
[33] = system: NEK4; test: KINOMEscan; type: binding; conditions: 1000 nM
[34] = system: BIKE; test: KINOMEscan; type: binding; conditions: 1000 nM
[35] = system: FGFR3; test: KINOMEscan; type: binding; conditions: 1000 nM
[36] = system: YSK1; test: KINOMEscan; type: binding; conditions: 1000 nM
[37] = system: DAPK1; test: KINOMEscan; type: binding; conditions: 1000 nM
[38] = system: CAMKK2; test: KINOMEscan; type: binding; conditions: 1000 nM

## C=CC(=O)Nc1cc(Nc2cc(-c3cccc(NC(=O)c4cc5c(s4)CCCC5)c3C)cn(C)c2=O)ccc1N1CCN(CC)CC1 [CHMFL-BTK-85]
[1]
  Percent Control: 86%
[2]
  Percent Control: 100%
[3]
  Percent Control: 90%
[4]
  Percent Control: 88%
[5]
  Percent Control: 76%
[6]
  pIC50: 7.94
[7]
  Percent Control: 100%
[8]
  Percent Control: 92%
[9]
  Percent Control: 88%
[10]
  Percent Control: 100%
[11]
  Percent Control: 79%
[12]
  Percent Control: 100%
[13]
  Percent Control: 92%
[14]
  remaining binding at 1 µM: 77%
[15]
  Percent Control: 85%
[16]
  Percent Control: 88%
[17]
  Percent Control: 99%
[18]
  Percent Control: 76%
[19]
  Percent Control: 100%
[20]
  Percent Control: 100%
[21]
  Percent Control: 80%
[22]
  Percent Control: 78%
[23]
  Percent Control: 100%
[24]
  Percent Control: 100%
[25]
  Percent Control: 90%
[26]
  Percent Control: 100%
[27]
  Percent Control: 98%
[28]
  Percent Control: 66%
[29]
  Percent Control: 98%
[30]
  Percent Control: 86%
[31]
  Percent Control: 100%
[32]
  Percent Control: 100%
[33]
  Percent Control: 100%
[34]
  Percent Control: 100%
[35]
  Percent Control: 82%
[36]
  Percent Control: 80%
[37]
  Percent Control: 98%
[38]
  Percent Control: 100%
